# Test results taken from patent US20140350081A1, “INSECT G-COUPLED RECEPTORS USEFUL AS TARGETS FOR INSECTICIDES AND COMPOUNDS AND REAGENTS IDENTIFIED USING THE SAME” (priority 2011, published 2014).
# Where a name gives a salt, the structure may show the parent alone.
# Molecular target: AaDOP2 (Aedes aegypti, UniProt H6D5H2)
# Assay: HTRF cAMP accumulation concentration response assay (Cisbio Dynamic 2)
# Assay type: cell-based
# Settings: not given
# Chain of AaDOP2 (H6D5H2 entry or part of it): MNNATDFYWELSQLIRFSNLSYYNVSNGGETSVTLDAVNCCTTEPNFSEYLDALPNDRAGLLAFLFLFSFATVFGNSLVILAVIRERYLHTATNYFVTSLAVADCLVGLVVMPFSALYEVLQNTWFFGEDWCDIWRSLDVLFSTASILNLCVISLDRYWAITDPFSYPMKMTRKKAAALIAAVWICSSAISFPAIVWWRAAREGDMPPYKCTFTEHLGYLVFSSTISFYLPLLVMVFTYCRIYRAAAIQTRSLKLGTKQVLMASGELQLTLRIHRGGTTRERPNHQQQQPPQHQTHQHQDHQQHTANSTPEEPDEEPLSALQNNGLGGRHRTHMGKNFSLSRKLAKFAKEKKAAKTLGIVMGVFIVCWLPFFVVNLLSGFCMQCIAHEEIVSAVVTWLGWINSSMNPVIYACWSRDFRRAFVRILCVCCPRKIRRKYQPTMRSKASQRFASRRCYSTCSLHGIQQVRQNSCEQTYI
row,Structure (SMILES),IC50 [nM]
1,"CCc1nn(CCCN2CCN(c3cccc(Cl)c3)CC2)c(=O)n1CCOc1ccccc1 [Nefazodone HCl, 2-[3-[4-(3-chlorophenyl)-1-piperazinyl]propyl]-5-ethyl-2,4-dihydro-4-(2-phenoxyethyl)-3H-1,2,4-triazol-3-one hydrochloride]",4880
2,"CC(=O)c1ccc2c(c1)OCO2 [ST092311, 5-acetyl-2H-benzo[d]1,3-dioxolene]",5820

# Same assay, conditions: AaDOP2 expressing cells in the presence of dopamine; No Inhibition = <10% inhibition at 3 μM test compound; read-out: IC50 ± S.E.M. (nM), HTRF cAMP assay
row,Structure (SMILES),IC50 [nM]
1,Cc1nc2sccn2c(=O)c1CCN1CCC(=C(c2ccccc2)c2ccc(F)cc2)CC1 [Compound R59-022],53 ± 13
2,CCOC(=O)N1CCC(=C2c3ccc(Cl)cc3CCc3cccnc32)CC1 [Loratidine],18000

# Same assay, conditions: in vitro Concentration Response Curve assay, n = 2, relative to control antagonist Amitriptyline; read-out: Avg IC50
row,Structure (SMILES),IC50 [nM]
1,"Cc1ccccc1Nc1nc(N2CCN(C)CC2)nc2c1cnn2-c1ccccc1 [Compound G932-0129, 6-(4-methylpiperazin-1-yl)-1-phenyl-N-(o-tolyl)-1H-pyrazolo[3,4-d]pyrimidin-4-amine]",3490
2,"O=[N+]([O-])C1=Cc2ccccc2OC1c1ccc2c(c1)OCO2 (stereo not drawn) [ST038696, 5-(3-nitro-2H-chromen-2-yl)-2H-benzo[d]1,3-dioxolane]",5510
3,"O=C1[C@H]2CCCC[C@H]2C(=O)N1CCCCN1CCN(c2nsc3ccccc23)CC1 [Peropirone Hcl, (3aR,7aS)-2-{4-[4-(1,2-benzisothiazol-3-yl)piperazin-1-yl]butyl}hexahydro-1H-isoindole-1,3(2H)-dione]",186
4,"CCC(CC)c1nc(Nc2ccc(C(=O)OC)cc2)c2ccccc2n1 [ST029812, methyl 4-{[2-(ethylpropyl)quinazolin-4-yl]amino}benzoate]",8930
5,"CCCC(=O)Nc1ccc(Nc2nc(C)cc(Nc3ccccc3)n2)cc1 [Compound G869-0097, N-(4-((4-methyl-6-(phenylamino)pyrimidin-2-yl)amino)phenyl)butyramide]",6050
6,"N=C1SC(=Cc2cc3c(cc2Br)OCO3)C(=O)N1c1ccc(OC(F)(F)F)cc1 [ST052085, 5-[(6-bromo(2H-benzo[d]1,3-dioxolen-5-yl))methylene]-2-imino-3-[4-(trifluoromethoxy)phenyl]-1,3-thiazolidin-4-one]",74200
7,"COc1ccc(Nc2nc(N3CCN(C)CC3)nc3c2cnn3-c2ccccc2)cc1 [Compound G932-0529, N-(4-methoxyphenyl)-6-(4-methylpiperazin-1-yl)-1-phenyl-1H-pyrazolo[3,4-d]pyrimidin-4-amine]",6870
8,"Cc1cc(Nc2ccccc2)nc(Nc2ccc(NC(=O)CC(C)C)cc2)n1 [Compound G869-0101, 3-methyl-N-(4-((4-methyl-6-(phenylamino)pyrimidin-2-yl)amino)phenyl)butanamide]",5500
9,"Cc1cc(Nc2ccccc2)nc(Nc2ccc(NC(=O)c3ccccc3Cl)cc2)n1 [Compound G869-0127, 2-chloro-N-(4-((4-methyl-6-(phenylamino)pyrimidin-2-yl)amino)phenyl)benzamide]",7510
10,"COc1ccc(Nc2cc(C)nc(Nc3ccc(NC(=O)C(C)(C)C)cc3)n2)cc1 [Compound G869-0273, N-(4-((4-((4-methoxyphenyl)amino)-6-methylpyrimidin-2-yl)amino)phenyl)pivalamide]",5090
11,"CN1CCN(c2nc(Nc3ccc(Cl)cc3)c3cnn(-c4ccccc4)c3n2)CC1 [Compound G932-0379, N-(4-chlorophenyl)-6-(4-methylpiperazin-1-yl)-1-phenyl-1H-pyrazolo[3,4-d]pyrimidin-4-amine]",3980
12,"CCOC(=O)C1=C(N)Oc2c(oc(CO)cc2=O)C1c1cc([N+](=O)[O-])ccc1Cl (stereo not drawn) [ST071653, ethyl 2-amino-4-(2-chloro-5-nitrophenyl)-6-(hydroxymethyl)-8-oxo-4H-pyrano[3,2-b]pyran-3-carboxylate]",1650
13,"OCCN1CCN(c2nc(Nc3ccccc3)c3cnn(-c4ccccc4)c3n2)CC1 [Compound G932-0232, 2-(4-(1-phenyl-4-(phenylamino)-1H-pyrazolo[3,4-d]pyrimidin-6-yl)piperazin-1-yl)ethanol]",1170
14,"CN1CCc2c(c3ccccc3n2Cc2ccccc2)C1 [ST088437, 2-methyl-5-benzyl-1,2,3,4-tetrahydropyridino[4,3-b]indole]",1970
15,"COc1ccc(Nc2cc(C)nc(Nc3ccc(NC(=O)CC(C)(C)C)cc3)n2)cc1 [Compound G869-0275, N-(4-((4-((4-methoxyphenyl)amino)-6-methylpyrimidin-2-yl)amino)phenyl)-3,3-dimethylbutanamide]",9020
16,"CC1CCC(C(C)C)C(OC(=O)C(=O)c2ccccc2)C1 (stereo not drawn) [ST070482, 5-methyl-2-(methylethyl)cyclohexyl 2-oxo-2-phenylacetate]",32400
17,"c1ccc(CCNc2nc(N3CCNCC3)nc3ccccc23)cc1 [ST095663, (phenylethyl)(2-piperazinylquinazolin-4-yl)amine]",4840
18,"Cc1ccc(Nc2nc(N3CCN(C)CC3)nc3c2cnn3-c2ccccc2)cc1 [Compound G932-0029, 6-(4-methylpiperazin-1-yl)-1-phenyl-N-(p-tolyl)-1H-pyrazolo[3,4-d]pyrimidin-4-amine]",4550
19,"CCN1CCN(c2nc(Nc3cccc(F)c3)c3cnn(-c4ccccc4)c3n2)CC1 [Compound G932-0687, 6-(4-ethylpiperazin-1-yl)-N-(3-fluorophenyl)-1-phenyl-1H-pyrazolo[3,4-d]pyrimidin-4-amine]",769

row,Structure (SMILES),IC50 [nM]
1,"COc1ccc2[nH]cc(CCNC(=O)C(=O)c3c(-c4ccccc4)n(C)c4ccccc34)c2c1 [ST077642, N-[2-(5-methoxyindol-3-yl)ethyl]-2-(1-methyl-2-phenylindol-3-yl)-2-oxoacetamide]",17600
2,"CCOC(=O)c1c(C)n(-c2ccccc2)c2cc(Br)c(OC)cc12 [ST002262, ethyl 6-bromo-5-methoxy-2-methyl-1-phenylindole-3-carboxylate]",4860
3,"CCN1CCN(c2nc(Nc3ccc(F)cc3)c3cnn(-c4ccccc4)c3n2)CC1 [Compound G932-0345, 6-(4-ethylpiperazin-1-yl)-N-(4-fluorophenyl)-1-phenyl-1H-pyrazolo[3,4-d]pyrimidin-4-amin]",4540
4,"COc1ccc(Nc2cc(C)nc(Nc3ccc(NC(=O)c4c(F)cccc4Cl)cc3)n2)cc1 [Compound G869-0304, 2-chloro-6-fluoro-N-(4-((4-((4-methoxyphenyl)amino)-6-methylpyrimidin-2-yl)amino)phenyl)benzamide]",7170
5,"Cc1ccccc1Nc1nc(Nc2ccccc2C)c2ccccc2n1 [ST027415, (2-methylphenyl){2-[(2-methylphenyl)amino]quinazolin-4-yl}amine]",8860
6,"CCC(=O)Nc1ccc(Nc2nc(C)cc(Nc3ccccc3)n2)cc1 [Compound G869-0096, N-(4-((4-methyl-6-(phenylamino)pyrimidin-2-yl)amino)phenyl)propionamide]",4740
7,"CCN1CCN(c2nc(Nc3ccccc3)c3cnn(-c4ccccc4)c3n2)CC1 [Compound G932-0245, 6-(4-ethylpiperazin-1-yl)-N,1-diphenyl-1H-pyrazolo[3,4-d]pyrimidin-4-amine]",557
8,"CCN(CC)CCNc1nc(Nc2ccc(Cl)cc2)c2cnn(-c3ccccc3)c2n1 [Compound G932-0372, N4-(4-chlorophenyl)-N6-(2-(diethylamino)ethyl)-1-phenyl-1H-pyrazolo[3,4-d]pyrimidine-4,6-diamine]",5130
9,"O=C(NCC1CCCCN1)c1cc(OCC(F)(F)F)ccc1OCC(F)(F)F (stereo not drawn) [Flecainide Acetate, N-(2-Piperidylmethyl)-2,5-bis-(2,2,2-trifluoroethoxy)benzamide acetate salt]",318
10,"COc1ccc(Nc2cc(C)nc(Nc3ccc(NC(C)=O)cc3)n2)cc1 [Compound G869-0268, N-(4-((4-((4-methoxyphenyl)amino)-6-methylpyrimidin-2-yl)amino)phenyl)acetamide]",13200
11,"Cc1cc(Nc2ccccc2)nc(Nc2ccc(NC(=O)C(C)(C)C)cc2)n1 [Compound G869-0100, N-(4-((4-methyl-6-(phenylamino)pyrimidin-2-yl)amino)phenyl)pivalamide]",2080
12,"CN1CCN(c2nc(Nc3ccc4c(c3)OCO4)c3cnn(-c4ccccc4)c3n2)CC1 [Compound G932-0818, N-(benzo[d][1,3]dioxol-5-yl)-6-(4-methylpiperazin-1-yl)-1-phenyl-1H-pyrazolo[3,4-d]pyrimidin-4-amine]",1650
13,"Cc1ccc(N(CC2=NCCN2)c2cccc(O)c2)cc1 [Phentolamine HCl, 2-[N-(3-Hydroxyphenyl)-p-toluidinomethyl]-2-imidazolidine hydrochloride]",9030
14,"Cc1cc(Nc2ccccc2)nc(Nc2ccc(NC(=O)C(C)C)cc2)n1 [Compound G869-0098, N-(4-((4-methyl-6-(phenylamino)pyrimidin-2-yl)amino)phenyl)isobutyramide]",3100
15,"CN1CCN(c2nc(Nc3ccc(F)cc3)c3cnn(-c4ccccc4)c3n2)CC1 [Compound G932-0329, N-(4-fluorophenyl)-6-(4-methylpiperazin-1-yl)-1-phenyl-1H-pyrazolo[3,4-d]pyrimidin-4-amine]",2500
16,"COc1ccc(C(=O)Nc2nc(-c3ccc4c(c3)OCCO4)cs2)cc1OC [ST075014, N-(4-(2H,3H-benzo[3,4-e]1,4-dioxin-6-yl)(1,3-thiazol-2-yl))(3,4-dimethoxyphenyl)carboxamide]",8310
17,"Cc1cc(N2CCCC2)nc(Nc2ccc(NC(=O)Cc3ccccc3)cc2)n1 [Compound G869-0499, N-(4-((4-methyl-6-(pyrrolidin-1-yl)pyrimidin-2-yl)amino)phenyl)-2-phenylacetamide]",9230
18,"CC(C)(O)C#Cc1ccc2c3c(cccc13)C(=O)OC2=O [ST010134, 6-(3-hydroxy-3-methyl-but-1-ynyl)-benzo(de)isochromene-1,3-dione]",952
19,"CC(COc1ccccc1Cc1ccccc1)N1CCCCC1 (racemic) [Benproperine phosphate, (RS)-1-[2-(2-benzylphenoxy)-1-methylethyl]piperidine]",4510
